The values below come from US10202604B2, “Methods of using microRNA-141” (Stemirna Therapeutics Co., Ltd., priority 2016, dated 2019).

The subject of one data set is Du145 cells. As to the kind of experiment: Boyden chamber Matrigel invasion assay. The note with it: miR-141 oligos 30 nM, 48 h vs NC. The class given is cell-based, human. Here is the method: FIGS. 3A-3J show partial suppression of epithelial to mesenchymal transition by miR-141 and CD44 as a direct target of miR-141. FIGS. 3A-3B show qPCR analysis of epithelial to mesenchymal transition markers in bulk (FIG. 3A) or CD44^+ (FIG. 3B) Du145 cells transfected with the miR-141 oligos (30 nM; 48 h). Results were presented as the relative expression levels over the cells transfected with the NC oligos. […] GAPDH was used as control and the relative protein levels after normalizing to GAPDH and NC controls were indicated below each lane. […] Shown below is the actual sequence in the region with the mutated miR-141 binding sequence indicated in grey (below). […] Shown are representative images. […]
Du145 cells transfected with NC or miR-141 oligos at the two doses and time intervals indicated were used in Western blotting. Indicated below are relative expression levels (normalized to respective GAPDH and compared to NC) of each protein determined by densitometric scanning of the individual bands. […]
FIG. 6A: Putative binding site of miR-141 in EZH2 3′-UTR. […] Relative protein levels were measured by densitometry and normalized to GAPDH levels (indicated below). […]
For Boyden Chamber invasion assays, Biocoat Matrigel Invasion Chamber (BD, Franklin Lakes, N.J.) was employed following the manufacturer's instructions. […] Representative images were taken for each membrane and cells were counted. […]

The subject of data set [1] is epithelial to mesenchymal transition markers in Du145 cells. The data set can be described thus: qPCR analysis of epithelial to mesenchymal transition markers. It is filed as cell-based, human. Here is the method:
FIGS. 3A-3J show partial suppression of epithelial to mesenchymal transition by miR-141 and CD44 as a direct target of miR-141. FIGS. 3A-3B show qPCR analysis of epithelial to mesenchymal transition markers in bulk (FIG. 3A) or CD44^+ (FIG. 3B) Du145 cells transfected with the miR-141 oligos (30 nM; 48 h). Results were presented as the relative expression levels over the cells transfected with the NC oligos. […] GAPDH was used as control and the relative protein levels after normalizing to GAPDH and NC controls were indicated below each lane. […] Shown below is the actual sequence in the region with the mutated miR-141 binding sequence indicated in grey (below). […] Shown are representative images. […] Du145 cells were co-transfected with NC or miR-141 oligos (30 nM) together with pBabe empty vector or pBabe-CD44 vector. After 48 h, cells were harvested for invasion assays. Bars, mean±SD. *, P<0.05; **, P<0.01.
Total RNA was extracted using microRNA isolation kit (Life Technologies) according to the manufacturer's instructions. microRNA qPCRs were performed using TaqMan microRNA assays (Life Technologies). qPCR data for microRNAs were normalized to RNU48 whereas qPCR data for mRNAs were normalized to GAPDH.
A general note: In qPCR the cycle at which signal appears reflects the starting amount.

The test system of data set [2] is RAC1, CDC42, ARPC5 and CDC42EP3. The data set can be described thus: Western blotting of Rho GTPase signaling members. It is filed as cell-based, human. The conditions noted are these: Du145 cells, miR-141 over-expression. The method, then:
Du145 cells transfected with NC or miR-141 oligos at the two doses and time intervals indicated were used in Western blotting. Indicated below are relative expression levels (normalized to respective GAPDH and compared to NC) of each protein determined by densitometric scanning of the individual bands. […] Bars, mean±SD. *P<0.05; **P<0.01. […] Du145 cells were co-transfected with NC or miR-141 oligos (30 nM) in combination with pcDNA3.1 (control) vector or pcDNA-RAC1 or pcDNA-CDC42 expression vector. After 48 h, cells were harvested for invasion assays. […] Du145 cells were infected with Lenti-141 or control lentivirus (MOI 10, 48 h) and then harvested to measure the Rho GTPase activities. Bars, mean±SD. *P<0.05. […] Du145 cells were transfected with the antisense oligos to NC or miR-141 (anti-141; 30 nM) and then used in invasion assays (FIG. 5E). In FIG. 5F and FIG. 5G Du145 cells were transfected with 10 nM of scramble siRNA control (siCon) or siRNAs targeting RAC1 (FIG. 5F) or CDC42 (FIG. 5G), either alone or in combination of anti-141 (30 nM). 48 h later, cells were harvested for invasion assays. Bars, mean±SD. *P<0.05; **P<0.01.

The subject of the next data set is human EZH2 3'-UTR. As to the kind of experiment: EZH2 3'-UTR luciferase reporter assay. The class given is cell-based. The note with it: Du145 cells. Here is the method:
FIG. 6A: Putative binding site of miR-141 in EZH2 3′-UTR. […] FIG. 6C is a qPCR analysis of EZH2 mRNA levels in CD44^+ PCa cells. Bars, mean±SD. *P<0.05; **P<0.01. […] Bars, mean±SD. **P<0.01. […] Western blotting was performed in PC3 and Du145 cells transfected with NC (60 nM) or miR-141 (30 or 60 nM) oligos (72 h). Relative protein levels were measured by densitometry and normalized to GAPDH levels (indicated below). […] Du145 cells plated one day before were treated with 1, 2, and 5 μM of DZNep for 96 h and then cells were harvested for invasion assays. **P<0.01. Inset, WB showing reduced EZH2 proteins by DZNep. […] Du145 cells were transfected with 10 nM scramble siRNA (siCon) or EZH2-targeting siRNAs (siEZH2) or siEZH2 plus anti-miR-141 (30 nM). 48 h later, cells were harvested for invasion assays. Bars, mean±SD. **P<0.01. […]
The human CD44 3′-UTR was amplified from Du145 genomic DNA using primers 5′-[…]-3′ (SEQ ID NO: 2) and 5′-[…]-3′ (SEQ ID NO: 3), as previously described (13). […] The luciferase activities were detected using Duo-luciferase reporter assay system (Promega). Human RAC1, CDC42, CDC42EP3, and ARPC5 3′-UTR luciferase reporter constructs were obtained from SwitchGear Genomics (Menlo Park, Calif.) and luciferase activities were measured per the manufacturer's instructions using LightSwitch luciferase assay kit.

As for “miR-141: miR-141 mirVana mimics (Life Technologies); microRNA-141 oligonucleotide may have SEQ ID NO: 1; in some experiments over-expressed by lentiviral vectors (UAACACUGUCUGGUAAAGAUGG; listed as RNA, further chemistry not given here) [miR-141 mirVana mimics (Life Technologies); in some experiments over-expressed by lentiviral vectors]”, the Du145 cell invasion result in the data set with Du145 cells is listed as “inhibited”. In data set [1] (CD44+ Du145 cells, 30 nM, 48 h), the “E-cadherin (CDH1) mRNA” value was “significant increase”; the “mRNA levels of mesenchymal markers including VIM and ZEB1” value is “generally reduced”. In addition, in data set [1] (bulk Du145 cells), the “mRNA levels of most other EMT markers including FN, ZEB2, SNAI1, SNAI2, and TWIST” value is on record as “did not reduce”. For the same substance, in data set [1] (bulk Du145 cells, 30 nM, 48 h), the “E-cadherin mRNA” value was “increased”; the “VIM and ZEB1 mRNA” value is listed as “decreased”. The “protein levels of ARPC5, CDC42EP3, CDC42 and RAC1” value in data set [2] was “downregulated, to varying degrees”. Moreover, in the data set on human EZH2 3'-UTR, the “luciferase activity, WT EZH2 3'-UTR” value is recorded as “suppressed” and the “luciferase activity, mutated EZH2 3'-UTR” value is reported as “not”.
